Experiment: xn = mol fraction of the nth substance listed
Settings: 101 kPa

CCC[N+]1(C)CCCC1.O=S(=O)([N-]S(=O)(=O)C(F)(F)F)C(F)(F)F + O=C1CCCO1
electrical conductivity [S/m]
Settings | 278.15 K | 288.15 K | 298.15 K | 308.15 K | 318.15 K | 328.15 K | 338.15 K | 348.15 K | 358.15 K
x1 = 0.0657 | 0.831 | 0.987 | 1.14 | 1.3 | 1.46 | – | 1.8 | 1.96 | –
x1 = 0.1741 | 0.965 | 1.18 | 1.39 | – | 1.86 | 2.12 | 2.35 | – | 2.82
x1 = 0.3874 | – | 0.765 | 0.979 | 1.22 | 1.47 | 1.74 | 2 | – | 2.56

Reference: a compilation of properties of binary mixtures (doi:10.5772/14848)
